Data taken from patent publication US8895613B2 (priority 2013, dated 2014).

Biological target: neuraminidase of Oseltamivir resistant virus of A/Vladivostok/16/09 (H1N1) influenza (Influenza A virus, UniProt C3W5S3)

Compound | more active than A2 by factor | more active than A4 by factor
CCC(CC)O[C@@H]1C=C(C(=O)O)C[C@H](NC(=N)N)[C@H]1NC(=O)CF [1.1, (3R,4R,5S)-5-guanidino-4-fluoroacetamido-3-(pentan-3-yloxy)cyclohex-1-enecarboxylic acid] | 207 | 250
CCC(CC)O[C@@H]1C=C(C(=O)O)C[C@H](NC(=N)N)[C@H]1NC(=O)C(F)F [1.4, (3R,4R,5S)-5-guanidino-4-difluoroacetamido-3-(pentan-3-yloxy)cyclohex-1-enecarboxylic acid] | 118 | 140
